Data reported in BindingDB's records for doi:10.7270/Q28G8J4C (Broad Institute, 2009).

Target: T1, POsterior Segregation (Caenorhabditis elegans, UniProt G5EF15)
T1 sequence (G5EF15 whole entry): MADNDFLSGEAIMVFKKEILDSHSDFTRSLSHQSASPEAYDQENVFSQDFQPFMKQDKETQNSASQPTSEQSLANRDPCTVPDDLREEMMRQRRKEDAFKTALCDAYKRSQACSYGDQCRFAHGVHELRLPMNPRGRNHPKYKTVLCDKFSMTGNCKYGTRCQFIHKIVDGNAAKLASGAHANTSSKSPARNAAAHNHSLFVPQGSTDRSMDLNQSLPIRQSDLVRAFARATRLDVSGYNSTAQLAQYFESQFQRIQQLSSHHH
Assay: disruptors of C. elegans POS-1 RNA interaction – biochemical, fluorescence polarization, dose response (AID 1964)

SMILES: COc1ccc(C2C(C(=O)c3cccs3)C(=O)C(=O)N2c2nncs2)cc1 (configuration not stated)
- EC50: 0.549 µM

SMILES: O=C(O)c1ccc(S(=O)(=O)N=C2C=C(Nc3ccccc3F)C(=O)c3ccccc32)cc1
- EC50: 117 µM

SMILES: COc1ccc(C2C(C(C)=O)=C(C)N=c3sc(=Cc4cc(C)n(C)c4C)c(=O)n32)c(OC)c1 (configuration not stated)
- EC50: 10.9 µM

SMILES: N#CC1C(=N)OC2=C(C(=O)CC(c3ccccc3)C2)C1c1ccc2c(c1)OCO2 (configuration not stated)
- EC50: > 300 µM

SMILES: Clc1ccc(C2=Nc3ncnn3C(c3ccco3)C2)cc1 (configuration not stated)
- EC50: 24.7 µM

SMILES: Brc1ccc(C2=Nc3ncnn3C(c3ccco3)C2)cc1 (configuration not stated)
- EC50: > 300 µM

SMILES: CS(=O)(=O)Nc1nc2n(n1)C(c1ccccc1)CC(c1ccc(Br)cc1)=N2 (configuration not stated)
- EC50: > 300 µM

SMILES: COc1ccccc1-n1c(O)c2n(-c3ccc(C)cc3)[nH]c(C(=O)c3ccccc3)c-2c1=O
- EC50: 13.7 µM

SMILES: COc1cc(C2c3c(-c4cccnc4)n[nH]c3OC(=N)C2C#N)cc(Br)c1O (configuration not stated)
- EC50: > 300 µM

SMILES: O=C1N=c2ccccc2=C1NNc1ccc(F)cc1
- EC50: > 300 µM

SMILES: c1ccc(CN=Nc2nc3ccccc3[nH]2)nc1
- EC50: 72.9 µM

SMILES: Cc1c(C(=O)NN=Cc2ccco2)[nH][nH]c1=O
- EC50: > 300 µM

SMILES: COC1=CC([N+](=O)[O-])=CC(/C=N/NC(=O)CC#N)C1=O (configuration not stated)
- EC50: > 300 µM

SMILES: Cc1ccc(Cl)c2c1NC(=O)/C2=C1/NC(=S)NC1=O
- EC50: 14.3 µM

SMILES: Cc1c(C(=O)O)cccc1-n1c(C)cc(CN=Nc2ccc([N+](=O)[O-])cn2)c1C
- EC50: > 300 µM

SMILES: COc1ccc(OC)c(NC=C2C(=O)NC(=S)N(Cc3ccccc3)C2=O)c1
- EC50: > 300 µM

SMILES: C[C@H]1c2cccc(O)c2C(=O)C2C(=O)[C@]3(O)C(=O)C(C(N)=O)C(=O)[C@@H](N(C)C)[C@@H]3[C@@H](O)[C@@H]21 (some centres not stated)
- EC50: > 300 µM

SMILES: COc1cc(C2C3=C(CC(C)(C)CC3=O)OC(=N)C2C#N)cc2c1OCO2 (configuration not stated)
- EC50: > 300 µM

SMILES: O=C(NN=Cc1c(O)ccc2ccccc12)Nc1ccccc1
- EC50: 105 µM

SMILES: N#CC1C(=N)OC2=C(C(=O)CCC2)C1c1ccc2c(c1)OCO2 (configuration not stated)
- EC50: > 300 µM

SMILES: Cc1ccc(Cl)c2c1=NC(=O)C=2NNc1ccccc1
- EC50: 18.6 µM

SMILES: COc1cc(C2C3=C(CCCC3=O)OC(=N)C2C#N)cc2c1OCO2 (configuration not stated)
- EC50: > 300 µM

SMILES: Cc1ccc2c(c1)=C(NNc1ccccc1C)C(=O)N=2
- EC50: > 300 µM

SMILES: O=C1NC(=O)N(c2cccc(F)c2)C(=O)C1=Cc1c[nH]c2ccccc12
- EC50: > 300 µM

SMILES: COc1ccccc1OCC(=O)NN=Cc1c(O)ccc2ccccc12
- EC50: 228 µM

SMILES: Oc1ccc(CN=Nc2ccc(Cl)nn2)c(O)c1O
- EC50: 50 µM

SMILES: N#CCC(=N)C(C#N)C#N [1,1,3-tricyano-2-amino-1-propene]
- EC50: 54.9 µM

SMILES: O=C(NN=CC1=CC(=O)C(=O)CC1)NN=CC1=CC(=O)C(=O)CC1 [1,3-bis[[(Z)-(3-hydroxy-4-oxocyclohexa-2,5-dien-1-ylidene)methyl]amino]urea]
- EC50: 16.2 µM

SMILES: CCN(CC)CCN1C(=O)C(=O)C(C(=O)c2cc3cccc(OC)c3o2)C1c1ccc(F)cc1 (configuration not stated) [1-(2-Diethylamino-ethyl)-5-(4-fluoro-phenyl)-3-hydroxy-4-(7-methoxy-benzofuran-2-carbonyl)-1,5-dihydr o-pyrrol-2-one]
- EC50: > 300 µM

SMILES: C=CCOc1cccc(C2C(C(=O)c3ccco3)C(=O)C(=O)N2Cc2ccco2)c1 (configuration not stated) [1-(2-furanylmethyl)-3-[2-furanyl(oxo)methyl]-4-hydroxy-2-(3-prop-2-enoxyphenyl)-2H-pyrrol-5-one]
- EC50: > 300 µM

SMILES: O=C1Nc2ccccc2/C1=N/NC(=S)Nc1ccc(O)cc1 [1-(4-hydroxyphenyl)-3-[(2-oxidanylideneindol-3-yl)amino]thiourea]
- EC50: 16.3 µM

SMILES: C=CCOc1ccc(C2C(C(=O)c3cccs3)C(=O)C(=O)N2c2nnc(C)s2)cc1 (configuration not stated) [1-(5-methyl-1,3,4-thiadiazol-2-yl)-4-oxidanyl-2-(4-prop-2-enoxyphenyl)-3-thiophen-2-ylcarbonyl-2H-pyrrol-5-one]
- EC50: 10.8 µM

SMILES: COc1ccc(NC=C2C(=O)NC(=S)N(Cc3ccccc3)C2=O)c(OC)c1 [1-Benzyl-5-[1-(2,4-dimethoxy-phenylamino)-meth-(Z)-ylidene]-2-thioxo-dihydro-pyrimidine-4,6-dione]
- EC50: > 300 µM

SMILES: CSc1nncc(C(C)N=Nc2ccccc2)n1 (configuration not stated) [1-[3-(methylsulfanyl)-1,2,4-triazin-5-yl]ethanone phenylhydrazone]
- EC50: 41.3 µM

SMILES: C=CCSc1nnc(N2C(=O)C(=O)C(C(=O)c3ccco3)C2c2ccccc2F)s1 (configuration not stated) [1-[5-(allylthio)-1,3,4-thiadiazol-2-yl]-5-(2-fluorophenyl)-4-(2-furoyl)-3-hydroxy-3-pyrrolin-2-one]
- EC50: 48.3 µM

SMILES: C=CCSc1nnc(N2C(=O)C(=O)C(C(=O)c3ccco3)C2c2ccc(F)cc2)s1 (configuration not stated) [1-[5-(allylthio)-1,3,4-thiadiazol-2-yl]-5-(4-fluorophenyl)-4-(2-furoyl)-3-hydroxy-3-pyrrolin-2-one]
- EC50: 114 µM

SMILES: CC(C)c1ccc(C2C(C#N)=C3Sc4ccccc4N3C(=N)C2C#N)cc1 (configuration not stated) [1-amino-3-(4-propan-2-ylphenyl)-3H-pyrido[2,1-b][1,3]benzothiazole-2,4-dicarbonitrile]
- EC50: 33 µM

SMILES: CC1(C)CC(=O)C2Sc3ccccc3N=C2C1 (configuration not stated) [2,2-Dimethyl-2,3-dihydro-1H,10H-phenothiazin-4-one]
- EC50: 43.9 µM

SMILES: Oc1c(Br)cc(Br)c(C=Nn2c(-c3ccccc3)n[nH]c2=S)c1Br [2,4,6-Tribromo-3-[(3-mercapto-5-phenyl-[1,2,4]triazol-4-ylimino)-methyl]-phenol]
- EC50: 8.49 µM

SMILES: COc1cccc(C2C(C(=O)c3cc4cccc(OC)c4o3)C(=O)C(=O)N2c2cc(C)on2)c1OC (configuration not stated) [2-(2,3-dimethoxyphenyl)-3-[(7-methoxy-1-benzofuran-2-yl)carbonyl]-1-(5-methyl-1,2-oxazol-3-yl)-4-oxidanyl-2H-pyrrol-5-one]
- EC50: > 300 µM

SMILES: COc1ccc(OC)c(C2C(C(=O)c3ccco3)C(=O)C(=O)N2CCN2CCOCC2)c1 (configuration not stated) [2-(2,5-dimethoxyphenyl)-3-(furan-2-carbonyl)-4-hydroxy-1-(2-morpholin-4-ylethyl)-2H-pyrrol-5-one]
- EC50: > 300 µM

SMILES: COc1cccc(C2C3=C(CCCC3=O)OC(=N)C2C#N)c1OC(=O)c1ccco1 (configuration not stated) [2-(2-amino-3-cyano-5-oxo-5,6,7,8-tetrahydro-4H-chromen-4-yl)-6-methoxyphenyl 2-furoate]
- EC50: > 300 µM

SMILES: CC1(C)CC(=O)C2=C(C1)OC(=N)C(C#N)C2c1ccccc1OC(=O)N1CCOCC1 (configuration not stated) [2-(2-amino-3-cyano-7,7-dimethyl-5-oxo-5,6,7,8-tetrahydro-4H-chromen-4-yl)phenyl morpholine-4-carboxylate]
- EC50: > 300 µM

SMILES: CCCSc1nnc(N2C(=O)C(=O)C(C(=O)c3ccco3)C2c2ccccc2F)s1 (configuration not stated) [2-(2-fluorophenyl)-3-(furan-2-carbonyl)-4-hydroxy-1-(5-propylsulfanyl-1,3,4-thiadiazol-2-yl)-2H-pyrrol-5-one]
- EC50: > 300 µM

SMILES: COc1ccc(C2C(C(=O)c3cccs3)C(=O)C(=O)N2c2nnc(C)s2)cc1OC (configuration not stated) [2-(3,4-dimethoxyphenyl)-1-(5-methyl-1,3,4-thiadiazol-2-yl)-4-oxidanyl-3-thiophen-2-ylcarbonyl-2H-pyrrol-5-one]
- EC50: 7.2 µM

SMILES: COc1ccc(C2C(C(=O)c3ccco3)C(=O)C(=O)N2c2nnc(C)s2)cc1OC (configuration not stated) [2-(3,4-dimethoxyphenyl)-3-(furan-2-carbonyl)-4-hydroxy-1-(5-methyl-1,3,4-thiadiazol-2-yl)-2H-pyrrol-5-one]
- EC50: > 300 µM

SMILES: Cc1ccc(C(=O)C2C(=O)C(=O)N(Cc3ccco3)C2c2cccc(Br)c2)o1 (configuration not stated) [2-(3-bromophenyl)-1-(2-furanylmethyl)-4-hydroxy-3-[(5-methyl-2-furanyl)-oxomethyl]-2H-pyrrol-5-one]
- EC50: > 300 µM

SMILES: CCCCOc1cccc(C2C(C(=O)c3ccc(C)o3)C(=O)C(=O)N2c2nnc(C)s2)c1 (configuration not stated) [2-(3-butoxyphenyl)-3-(5-methylfuran-2-yl)carbonyl-1-(5-methyl-1,3,4-thiadiazol-2-yl)-4-oxidanyl-2H-pyrrol-5-one]
- EC50: 102 µM

SMILES: CSc1nnc(N2C(=O)C(=O)C(C(=O)c3ccco3)C2c2cccc(Cl)c2)s1 (configuration not stated) [2-(3-chlorophenyl)-3-(furan-2-carbonyl)-4-hydroxy-1-(5-methylsulfanyl-1,3,4-thiadiazol-2-yl)-2H-pyrrol-5-one]
- EC50: 31.3 µM

SMILES: CCOc1cccc(C2C(C(=O)c3ccc(C)o3)C(=O)C(=O)N2c2nccs2)c1 (configuration not stated) [2-(3-ethoxyphenyl)-3-(5-methylfuran-2-yl)carbonyl-4-oxidanyl-1-(1,3-thiazol-2-yl)-2H-pyrrol-5-one]
- EC50: 1.41 µM

SMILES: Cc1cccc(Nc2nc(O)cs2)c1 [2-(3-methylanilino)-1,3-thiazol-4-one]
- EC50: > 300 µM

SMILES: Cc1nnc(N2C(=O)C(=O)C(C(=O)c3ccco3)C2c2ccc(F)cc2)s1 (configuration not stated) [2-(4-fluorophenyl)-3-(furan-2-carbonyl)-4-hydroxy-1-(5-methyl-1,3,4-thiadiazol-2-yl)-2H-pyrrol-5-one]
- EC50: 34.2 µM

SMILES: CSc1nnc(N2C(=O)C(=O)C(C(=O)c3ccco3)C2c2ccc(F)cc2)s1 (configuration not stated) [2-(4-fluorophenyl)-3-(furan-2-carbonyl)-4-hydroxy-1-(5-methylsulfanyl-1,3,4-thiadiazol-2-yl)-2H-pyrrol-5-one]
- EC50: 150 µM

SMILES: Cc1[nH]c2ccccc2c1/C=C1\N=C(c2ccc(F)cc2)OC1=O [2-(4-fluorophenyl)-4-[(2-methyl-1H-indol-3-yl)methylene]-1,3-oxazol-5(4H)-one]
- EC50: > 300 µM

SMILES: O=C1c2cccc([N+](=O)[O-])c2C(=O)N1n1c(O)csc1=S [2-(4-keto-2-thioxo-thiazolidin-3-yl)-4-nitro-isoindoline-1,3-quinone]
- EC50: 24.9 µM

SMILES: Cc1nnc(N2C(=O)C(=O)C(C(=O)c3ccco3)C2c2ccc(C(C)(C)C)cc2)s1 (configuration not stated) [2-(4-tert-butylphenyl)-3-(furan-2-carbonyl)-4-hydroxy-1-(5-methyl-1,3,4-thiadiazol-2-yl)-2H-pyrrol-5-one]
- EC50: 24.9 µM

SMILES: COc1ccc(C2C3=C(CCCC3=O)OC(=N)C2C#N)c(OC)c1OC (configuration not stated) [2-Amino-5-oxo-4-(2,3,4-trimethoxy-phenyl)-5,6,7,8-tetrahydro-4H-chromene-3-carbonitrile]
- EC50: > 300 µM
